The results in this text go back to patent US7419789B2, “Method of inhibiting binding of Dengue virus to a human cell with DC-SIGN blockers” (Institut Pasteur, priority 2002, dated 2008).

In the test the test system is DEN-1 virus strain FGA/NA d1d. Briefly: Inhibition of DC-SIGN-mediated DEN-1 virus infection of THP/DC-SIGN cells, indirect immunofluorescence. It is filed as cell-based, DEN-1 virus (human monocytic THP/DC-SIGN cells). The settings on record: m.o.i. 5 AP61 FFU/cell. On the procedure:
Prior to infection, THP-1/DC/SIGN cells were incubated with either Mab 9D12 (dilution 1:50), Mab BD12.5 (20 μg/ml), Mab 1B10.2.6 (20 μg/ml), EDTA (5 mM), mannan (20 μg/ml), or mock-treated (control). Treated cells were infected with DEN-1 virus strain FGA/NA did (5 AP61 FFU/cell) in the presence of reagents for 2 hrs. Viral antigens were detected by indirect immunofluorescence as described in the legend of FIG. 1. The percentages of infected cells 48 h post-infection are indicated. Values represent the mean of triplicate assays ±SD.
Cells were washed once with RPMI 1640, incubated with highly purified virus in RPMI 1640 supplemented with 0.2% bovine serum albumine (BSA, pH 7.5) (Sigma) for 2 hrs at 37° C. and placed into fresh media supplemented with 2% FCS, 2 mM L-glutamine and antibiotics Peni/Strepto at 37° C. for 40 hrs.
The percentage of cells expressing viral antigen was determined using either DEN-1 virus-specific hyperimmune mouse ascites fluid (HMAF) 9801 (strain Hawaï), WN virus-specific HMAF 0801 (strain IS-98-ST1), or YF virus-specific HMAF. 9803 (strain FNV) with dilution of 1:50, by indirect immunofluorescence as previously described (Desprès et al., J. Virol., 70: 4090, 1996). […]

On to mannan, for which, where the note is “20 μg/ml”, the “reduction of FGA/NA d1d infectivity” value is listed as 75%. Take `O=C(O)CN(CCN(CC(=O)O)CC(=O)O)CC(=O)O` [EDTA]: for the setting “EDTA 5 mM, Mab 20 μg/ml”, the “infectivity of DEN-1 virus in preincubated THP/DC-SIGN cells” value is “essentially abolished”.
